Results published in US11866431B2, “Bicyclic compounds” (Vivace Therapeutics, Inc., priority 2018, dated 2024).

The compounds below were run on 8XTBD luciferase reporter (YAP reporter) in HEK293T cells (assay: YAP Reporter Assay). Conditions: Homo sapiens, HEK-293T, 24 h, read-out: Firefly Luciferase IC50 (μM).
Type: cell-based
How it was run: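 Dual-luciferase read-out after 24 h compound exposure at 37° C, 5% CO2; IC50 and maximum inhibition given separately for 8XTBD-firefly and TK-renilla signals. Stable HEK293T reporter cells, 3×10^3/well, received 10-point 1:3 series starting 3 μM final, in quadruplicate.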
Work on C[C@H](NC(=O)c1ccc2c(-c3ccc(C(F)(F)F)cc3)cccc2c1)C1CN(CCO)C1 [Compound 140, N-[(1S)-1-[1-(2-hydroxyethyl)azetidin-3-yl]ethyl]-5-[4-(trifluoromethyl)phenyl]naphthalene-2-carboxamide] yielded an IC50 of 0.1 to 1 µM.

Same assay, conditions: Homo sapiens, HEK-293T; HEK293T cells stably transfected with 8XTBD luciferase reporter and pRLTK; 24-hr incubation; top concentration 3 μM; read-out: Firefly Luciferase IC50
COc1cc(-c2ccc(C(F)(F)F)cc2)c2ccc(C(=O)N[C@@H](C)CO)cc2c1 [Compound 296, (S)—N-(1-Hydroxypropan-2-yl)-7-methoxy-5-(4-(trifluoromethyl)phenyl)-2-naphthamide] gave an IC50 of less than 0.1 µM. CCOc1cc(-c2ccc(C(F)(F)F)cc2)c2ncc(C(=O)NS(C)(=O)=O)cc2c1 [Compound 81, 6-ethoxy-N-(methylsulfonyl)-8-(4-(trifluoromethyl)phenyl)quinoline-3-carboxamide] gave an IC50 of 0.1 to 1 µM. Work on C#Cc1cc(-c2ccc(C(F)(F)F)cc2)c2ccc(C(=O)NC(C)C)cc2c1 [Compound 38, 7-ethynyl-N-isopropyl-5-(4-(trifluoromethyl)phenyl)-2-naphthamide] yielded an IC50 of less than 0.1 µM. For C[C@H](NC(=O)c1ccc2c(-c3ccc(C(F)(F)F)cc3)cccc2c1)c1nnnn1C [Compound 280, (S)—N-(1-(1-methyl-1H-tetrazol-5-yl)ethyl)-5-(4-(trifluoromethyl)phenyl)-2-naphthamide], the IC50 was 1 to 3 µM. For CC(C)NC(=O)c1cnc2c(-c3ccc(C(F)(F)F)cc3)cc(OC(F)(F)F)cc2c1 [Compound 104, N-isopropyl-6-(trifluoromethoxy)-8-[4-(trifluoromethyl)phenyl]quinoline-3-carboxamide], the IC50 was less than 0.1 µM. O=C(N[C@H](CO)C1CNC1)c1ccc2c(-c3ccc(C(F)(F)F)cc3)cccc2c1 [Compound 130, N-[(1S)-1-(azetidin-3-yl)-2-hydroxy-ethyl]-5-[4-(trifluoromethyl)phenyl]naphthalene-2-carboxamide] gave an IC50 of 1 to 3 µM. O=C(NCCCCl)c1ccc2c(-c3ccc(C(F)(F)F)cc3)cccc2c1 [Compound 265, N-(3-chloropropyl)-5-(4-(trifluoromethyl)phenyl)-2-naphthamide] showed an IC50 of 0.1 to 1 µM. For C[C@@H](NC(=O)c1cnc2c(-c3ccc(C(F)(F)F)cc3)cccc2c1)c1ccccn1 [Compound 101, (R)—N-(1-(pyridin-2-yl)ethyl)-8-(4-(trifluoromethyl)phenyl)quinoline-3-carboxamide], the IC50 was 0.1 to 1 µM. Compound CC(=O)N1CC([C@H](C)NC(=O)c2ccc3c(-c4ccc(C(F)(F)F)cc4)cccc3c2)C1 [Compound 200, (S)—N-(1-(1-acetylazetidin-3-yl)ethyl)-5-(4-(trifluoromethyl)phenyl)-2-naphthamide] has an IC50 of 0.1 to 1 µM. C[C@@H](NC(=O)c1ccc2c(-c3ccc(C(F)(F)F)cc3)cccc2c1)C1CNC1 [Compound 203, (R)—N-(1-(azetidin-3-yl)ethyl)-5-(4-(trifluoromethyl)phenyl)-2-naphthamide] was tested, and the IC50 was less than 0.1 µM. COc1cc(-c2ccc(C(F)(F)F)cc2)c2ccc(C(=O)NC(C)C)cc2c1 [Compound 39, N-isopropyl-7-methoxy-5-[4-(trifluoromethyl)phenyl]naphthalene-2-carboxamide] gave an IC50 of less than 0.1 µM. For CC(C)NC(=O)c1ccc2c(-c3ccc(C(F)(F)F)cc3)cc(Cl)c(N)c2c1 [Compound 33, 8-amino-7-chloro-N-isopropyl-5-(4-(trifluoromethyl)phenyl)-2-naphthamide], the IC50 was less than 0.1 µM. Compound COc1cc(-c2ccc(C(F)(F)F)cc2F)c2ncc(C(=O)N[C@H](C)CO)cc2c1 [Compound 233, (R)-8-(2-Fluoro-4-(trifluoromethyl)phenyl)-N-(1-hydroxypropan-2-yl)-6-methoxyquinoline-3-carboxamide] has an IC50 of less than 0.1 µM. For CC(C)NC(=O)c1ccc2c(-c3ccc(C(F)(F)F)cc3)cc(NS(C)(=O)=O)cc2c1 [Compound 52, N-isopropyl-7-(methylsulfonamido)-5-(4-(trifluoromethyl)phenyl)-2-naphthamide], the IC50 was less than 0.1 µM. For CC(=O)Nc1cc(-c2ccc(C(F)(F)F)cc2)c2ccc(C(=O)NC(C)C)cc2c1 [Compound 48, 7-acetamido-N-isopropyl-5-(4-(trifluoromethyl)phenyl)-2-naphthamide], the IC50 was 0.1 to 1 µM. With COCCNC(=O)c1ccc2c(-c3ccc(C(F)(F)F)cc3)cccc2c1 [Compound 58, N-(2-methoxyethyl)-5-(4-(trifluoromethyl)phenyl)-2-naphthamide] the IC50 was less than 0.1 µM. For CCN1CC([C@@H](C)NC(=O)c2cnc3c(-c4ccc(C(F)(F)F)cc4)cccc3c2)C1 [Compound 150, N-[(1R)-1-(1-Ethylazetidin-3-yl)ethyl]-8-[4-(trifluoromethyl)phenyl]quinoline-3-carboxamide], the IC50 was 1 to 3 µM. For CC(C)NC(=O)c1ccc2c(-c3ccc(C(F)(F)F)cc3)cc(N(C)S(C)(=O)=O)cc2c1 [Compound 53, N-isopropyl-7-(N-methylmethylsulfonamido)-5-(4-(trifluoromethyl)phenyl)-2-naphthamide], the IC50 was 0.1 to 1 µM. C#CCNC(=O)c1ccc2c(-c3ccc(C(F)(F)F)cc3)cccc2c1 [Compound 111, N-(prop-2-yn-1-yl)-5-(4-(trifluoromethyl)phenyl)-2-naphthamide] was tested, and the IC50 was less than 0.1 µM. C[C@@H](NC(=O)c1ccc2c(-c3ccc(C(F)(F)F)cc3)cccc2c1)c1nccn1C [Compound 254, (R)—N-(1-(1-methyl-1H-imidazol-2-yl)ethyl)-5-(4-(trifluoromethyl)phenyl)-2-naphthamide] was tested, and the IC50 was 0.1 to 1 µM. NC(=O)c1nc(CNC(=O)c2ccc3c(-c4ccc(C(F)(F)F)cc4)cccc3c2)ns1 [Compound 184, 3-((5-(4-(Trifluoromethyl)phenyl)-2-naphthamido)methyl)-1,2,4-thiadiazole-5-carboxamide] showed an IC50 of less than 0.1 µM. For COC[C@H](C)NC(=O)c1ccc2c(-c3ccc(C(F)(F)F)cc3)cccc2c1 [Compound 89, (S)—N-(1-methoxypropan-2-yl)-5-(4-(trifluoromethyl)phenyl)-2-naphthamide], the IC50 was less than 0.1 µM. O=C(O)c1cnc2c(-c3ccc(C(F)(F)F)cc3)cc(OC(F)(F)F)cc2c1 [Compound 324, 6-(Trifluoromethoxy)-8-[4-(trifluoromethyl)phenyl]quinoline-3-carboxylic acid] gave an IC50 of less than 0.1 µM. CC(C)(C)OC(=O)NCCOCCOCCNC(=O)c1ccc2c(-c3ccc(C(F)(F)F)cc3)cccc2c1 [Compound 49, Tert-Butyl (2-(2-(2-(5-(4-(trifluoromethyl)phenyl)-2-naphthamido)ethoxy)ethoxy)ethyl)carbamate] was tested, and the IC50 was 0.1 to 1 µM. Compound N#Cc1cccc(CNC(=O)c2ccc3c(-c4ccc(C(F)(F)F)cc4)cccc3c2)n1 [Compound 191, N-((6-cyanopyridin-2-yl)methyl)-5-(4-(trifluoromethyl)phenyl)-2-naphthamide] has an IC50 of 0.1 to 1 µM. CS(=O)(=O)NC(=O)c1cnc2c(-c3ccc(C(F)(F)F)cc3)cc(OC(F)(F)F)cc2c1 [Compound 123, N-(methylsulfonyl)-6-(trifluoromethoxy)-8-(4-(trifluoromethyl)phenyl)quinoline-3-carboxamide] was tested, and the IC50 was 1 to 3 µM. Compound C[C@@H](NC(=O)c1ccc2c(-c3ccc(C(F)(F)F)cc3)cccc2c1)c1cccc(N(C)C)n1 [Compound 286, (R)—N-(1-(6-(dimethylamino)pyridin-2-yl)ethyl)-5-(4-(trifluoromethyl)phenyl)-2-naphthamide] has an IC50 of less than 0.1 µM. C[C@H](CO)NC(=O)c1ccc2c(-c3ccc(C(F)(F)F)cc3)cccc2c1 [Compound 85, (R)—N-(1-hydroxypropan-2-yl)-5-(4-(trifluoromethyl)phenyl)-2-naphthamide] was tested, and the IC50 was less than 0.1 µM. COC[C@H](C)NC(=O)c1cnc2c(-c3ccc(C(F)(F)F)cc3)cccc2c1 [Compound 102, (S)—N-(1-methoxypropan-2-yl)-8-(4-(trifluoromethyl)phenyl)quinoline-3-carboxamide] was tested, and the IC50 was less than 0.1 µM. Work on C[C@H](NC(=O)c1ccc2c(-c3ccc(C(F)(F)F)cc3)cccc2c1)c1ncc[nH]1 [Compound 243, (S)—N-(1-(1H-imidazol-2-yl)ethyl)-5-(4-(trifluoromethyl)phenyl)-2-naphthamide] yielded an IC50 of 0.1 to 1 µM. COC[C@@H](C)NC(=O)c1ccc2c(-c3ccc(C(F)(F)F)cc3)cc(OC)cc2c1 [Compound 295, (R)-7-Methoxy-N-(1-methoxypropan-2-yl)-5-(4-(trifluoromethyl)phenyl)-2-naphthamide] was tested, and the IC50 was less than 0.1 µM. In the case of C[C@H](NC(=O)c1ccc2c(-c3ccc(C(F)(F)F)cc3)cccc2c1)C1CNC1 [Compound 204, (S)—N-(1-(azetidin-3-yl)ethyl)-5-(4-(trifluoromethyl)phenyl)-2-naphthamide], the IC50 is reported as 0.1 to 1 µM. Work on C[C@@H](NC(=O)c1ccc2c(-c3ccc(C(F)(F)F)cc3)cccc2c1)c1ccccn1 [Compound 91, (R)—N-(1-(pyridin-2-yl)ethyl)-5-(4-(trifluoromethyl)phenyl)-2-naphthamide] yielded an IC50 of 0.1 to 1 µM. In the case of O=C(N[C@@H](CO)c1ccccn1)c1ccc2c(-c3ccc(C(F)(F)F)cc3)cccc2c1 [Compound 163, N-[(1R)-2-hydroxy-1-(2-pyridyl)ethyl]-5-[4-(trifluoromethyl)phenyl]naphthalene-2-carboxamide], the IC50 is reported as less than 0.1 µM. O=C(NCc1ncns1)c1ccc2c(-c3ccc(C(F)(F)F)cc3)cccc2c1 [Compound 220, N-((1,2,4-thiadiazol-5-yl)methyl)-5-(4-(trifluoromethyl)phenyl)-2-naphthamide] was tested, and the IC50 was less than 0.1 µM. C[C@H](CCN)NC(=O)c1ccc2c(-c3ccc(C(F)(F)F)cc3)cccc2c1 [Compound 169, (R)—N-(4-aminobutan-2-yl)-5-(4-(trifluoromethyl)phenyl)-2-naphthamide] was tested, and the IC50 was 0.1 to 1 µM. For CC(C)NC(=O)c1ccc2c(-c3ccc(C(F)(F)F)cc3)ccc([S+](C)[O-])c2c1 (centres unmarked) [Compound 27, N-isopropyl-8-methylsulfinyl-5-[4-(trifluoromethyl)phenyl]naphthalene-2-carboxamide], the IC50 was 0.1 to 1 µM.
